Experimental data taken from patent US8536178B2, “Pharmaceutical composition for preventing or treating diseases associated with beta-amyloid accumulation containing morpholin or piperazine based compounds having SO3H or COOH as active ingredient” (Korea Institute of Science and Technology, priority 2009, dated 2013).

Legend:
Aβ40 fibril = target: T1, Aβ40 fibril (Homo sapiens, UniProt P05067); test: Accumulated beta-amyloid disaggregation activity by thioflavin T (ThT) fluorescence intensity, Aβ40; assay type: biochemical; conditions: Aβ40 50 μM, compound 20 mM
T1 construct: beta-amyloids 40 and 42 consisting of 40 and 42 amino acids
T1 sequence (P05067 672-711 limits assumed): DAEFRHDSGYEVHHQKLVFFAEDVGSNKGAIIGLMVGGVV
Procedure: (§1) In order to measure the disaggregation activity of the beta-amyloid aggregate of a compound according to the present invention, the following experiment was performed using thioflavin T (ThT) fluorescence intensity.
(§2) Thioflavin T (ThT) is well mixed with fibril which is a beta-amyloid aggregate in a solution and tends to increase the fluorescence intensity as the concentration of fibril increases.
(§3) For aggregation of beta-amyloid, a beta-amyloid stock solution was prepared. The beta-amyloid stock solutions were prepared in a DMSO solution such that Aβ40 or Aβ42 might have a concentration of 5 mM and 2.5 mM, respectively, and diluted in distilled water by 10 times to prepare Aβ40 and Aβ42 at a final concentration of 500 μM and 250 μM, respectively. It was cultured at 37° C. for 7 to 10 days to prepare a sufficient amount of beta-amyloid aggregate. Subsequently, compounds of chemical formula 1a to 1e according to the present invention or distilled water were again added into each accumulated beta-amyloid to obtain 10-times diluted solutions, and then they were cultured at 37° C. for 7 days. Distilled water was used as a control group. The final concentration of the compound was 20 mM, and the final concentrations of beta-amyloid Aβ40 or Aβ42 were 50 μM and 25 μM, respectively. After distilled water or the compound was added, 25 μl of each reaction solution on 0th, 3rd, and 7th day was aliquoted into each well, into which was added 75 μl of thioflavin T (ThT) to have thioflavin T (ThT) at a concentration of 5 μM. It was cultured for additional 15 minutes, and then the fluorescence intensity of a half well 96 fluorescence microplate was measured by Envision 2103 multilabel reader, Perkin-Elmer. During the measurement of fluorescence intensity, the wavelengths of excitation and emission were 450 nm and 485 nm, respectively and the counting time was 0.5 sec. […]

Aβ42 fibril = target: T2, Aβ42 fibril (Homo sapiens, UniProt P05067); test: Accumulated beta-amyloid disaggregation activity by thioflavin T (ThT) fluorescence intensity, Aβ42; assay type: biochemical; conditions: Aβ42 25 μM, compound 20 mM
T2 construct: beta-amyloids 40 and 42 consisting of 40 and 42 amino acids
T2 sequence (P05067 672-713 limits assumed): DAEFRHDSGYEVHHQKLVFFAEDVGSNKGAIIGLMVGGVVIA
Procedure: as §1, §2, §3

Aβ40 = target: T3, Aβ40 (Homo sapiens, UniProt P05067); test: Beta-amyloid accumulation inhibitory activity by thioflavin T (ThT) fluorescence intensity; assay type: biochemical; conditions: Aβ40 50 μM, compound 20 mM (test compound: chemical formula 1a), 37° C., 0th to 7th day, FIG. 1
T3 construct: beta-amyloids 40 and 42 consisting of 40 and 42 amino acids
T3 sequence (P05067 672-711 limits assumed): as the sequence (P05067 672-711 limits assumed) above
Procedure: In order to measure the beta-amyloid accumulation inhibitory activity of a compound according to the present invention, the following experiment was performed using thioflavin T (ThT) fluorescence intensity.
Thioflavin T (ThT) is well mixed with fibril which is a beta-amyloid aggregate in a solution and tends to increase the shifted fluorescence intensity as the concentration of fibril increases.
A solution was prepared in a DMSO solution such that Aβ40 might have a concentration of 5 mM, and diluted in a compound of chemical formula 1a by 100 times to prepare Aβ40 at a final concentration of 50 μM. The concentration of the compound was 20 mM. Tramiprosate was used as a control group. Tramiprosate is a compound known to treat Alzheimer's disease and related diseases by inhibiting the accumulation of beta-amyloid (F. Gervais, J. et al. (2007)). Subsequently, it was cultured at 37° C. for 7 days. […] It was cultured for additional 15 minutes, and then the fluorescence intensity of a half well 96 fluorescence microplate was measured by Envision 2103 multilabel reader, Perkin-Elmer. During the measurement of fluorescence intensity, the wavelengths of excitation and emission were 450 nm and 485 nm, respectively and the counting time was 0.5 sec.

[1] = target: T4, beta-amyloid 40 aggregate (Homo sapiens, UniProt P05067); test: Beta-amyloid fibril disaggregation activity by electronic microscope, Aβ40; assay type: biochemical; conditions: Aβ40 50 μM, compound 20 mM, 3rd and 7th days, FIG. 6
T4 construct: beta-amyloids 40 and 42 consisting of 40 and 42 amino acids
T4 sequence (P05067 672-711 limits assumed): as above
Procedure: (§4) In order to measure accumulated beta-amyloid disaggregation activity of a compound according to the present invention, the following experiment was performed using electronic microscope.
(§5) A beta-amyloid stock solution was prepared such that Aβ40 or Aβ42 might have a concentration of 5 mM and 2.5 mM, respectively, and diluted in distilled water by 10 times to prepare Aβ40 and Aβ42 at a final concentration of 500 μM and 250 μM, respectively. It was cultured at 37° C. for 7 to 10 days to prepare a sufficient amount of beta-amyloid aggregate. Subsequently, compounds of chemical formula 1a to 1e according to the present invention or distilled water were again added into each accumulated beta-amyloid to obtain 10-times diluted solutions, and then it was cultured at 37° C. for 7 days. Distilled water was used as a control group. The final concentration of the compound was 20 mM, and the final concentrations of beta-amyloid Aβ40 or Aβ42 were 50 μM and 25 μM, respectively. Subsequently, a compound of chemical formula 1a was added, and then the mixture was cultured at 37° C. for 7 days. From each of the reaction solutions on 0th, 3rd, and 7th days after addition of distilled water or the compound, the accumulations and disaggregation degrees of accumulated beta-amyloid were observed using analytical transmission electron microscope. […]

[2] = tested on: HT-22 cells treated with Aβ42; test: Cell viability (MTT) on beta-amyloid toxicity, Aβ42; assay type: cell-based, rat; conditions: HT-22, Aβ42 1 μM pre-treated with compound, 24 hours, untreated cells = 100%, FIG. 8 (b)
Procedure: (§6) In order to determine the cell survival rate of a compound according to the present invention on beta-amyloid toxicity, the following example was performed.
(§7) In order to obtain beta-amyloid aggregates, a beta-amyloid stock solution was prepared. The beta-amyloid stock solutions were prepared in a DMSO solution such that Aβ40 or Aβ42 might have a concentration of 5 mM and 2.5 mM, respectively, and diluted in distilled water by 10 times to prepare Aβ40 and Aβ42 at a final concentration of 500 μM and 250 μM, respectively. Distilled water added to each solution to culture a 10 times diluted beta-amyloid at 37° C. for 7 to 10 days. Subsequently, compounds of chemical formula 1a to 1e according to the present invention or distilled water were again added into each beta-amyloid to obtain 10-times diluted solutions, and then it was cultured at 37° C. for 7 days. Distilled water was used as a control group instead of the compound. […] The cytotoxicity of the reaction solutions on 0th, 3rd, and 7th days after addition of distilled water or the compound was measured using the following cell line.
(§8) HT-22, a neuronal cell line of a rat, was cultured in DMEM (Dulbecco's Modified Eagle's Medium) supplemented with 10% FBS (Fetal Bovine Serum) and 1% penicillin/streptomycin in an incubator of 37° C. and 5% CO2. […] 18 hours later, the optical absorption was determined at 570 nm by a microplate reader. […]

HT-22 cells = test: Cytotoxicity of the compound alone (MTT); assay type: cell-based, rat; conditions: HT-22, without any treatment of beta-amyloid, untreated cells = 100%
accumulated Aβ42 = target: T5, accumulated Aβ42 (Homo sapiens, UniProt P05067); test: Beta-amyloid fibril disaggregation activity by SDS-PAGE, Aβ42; assay type: biochemical; conditions: Aβ42 25 μM, compound 20 mM, 3rd and 7th day, photo-induced cross-linking, silver staining
T5 construct: beta-amyloids 40 and 42 consisting of 40 and 42 amino acids
T5 sequence (P05067 672-713 limits assumed): as the sequence (P05067 672-713 limits assumed) above
Procedure: (§9) In order to measure the accumulated beta-amyloid disaggregation activity of a compound according to the present invention, the following experiment was performed using SDS-PAGE.
(§10) When peptides or proteins are subjected to electrophoresis on an SDS gel, the secondary structures of the proteins are broken. Thus, it is necessary to cross-link the proteins and immobilize their structures. It is achieved by a photo-induced cross-linking such that the structure of accumulated beta-amyloid may not be dismissed during electrophoresis on SDS gel. Specifically, a beta-amyloid stock solution was prepared in a DMSO solution such that Aβ40 or Aβ42 may have a concentration of 5 mM or 2.5 mM, and was […] by 10 times using distilled water to prepare Aβ40 and Aβ42 at a concentration of 500 μM and 250 μM, respectively. It was cultured at 37° C. for 7 to 10 days to prepare a sufficient amount of beta-amyloid aggregate. Subsequently, compounds of chemical formula 1a to 1e according to the present invention or distilled water were again added into each accumulated beta-amyloid to obtain 10-times diluted solutions, and then they were cultured at 37° C. for 7 days. Distilled water was used as a control group. The final concentration of the compound was 20 mM, and the final concentrations of beta-amyloid Aβ40 or Aβ42 were 50 μM and 25 μM, respectively. […]

accumulated Aβ40 = target: T6, accumulated Aβ40 (Homo sapiens, UniProt P05067); test: Beta-amyloid fibril disaggregation activity by SDS-PAGE, Aβ40; assay type: biochemical; conditions: Aβ40 50 μM, compound 20 mM, 3rd and 7th day, photo-induced cross-linking, silver staining
T6 construct: beta-amyloids 40 and 42 consisting of 40 and 42 amino acids
T6 sequence (P05067 672-711 limits assumed): as the sequence (P05067 672-711 limits assumed) above
Procedure: as §9, §10

[3] = target: T7, beta-amyloid 42 aggregate (Homo sapiens, UniProt P05067); test: Beta-amyloid fibril disaggregation activity by electronic microscope, Aβ42; assay type: biochemical; conditions: Aβ42 25 μM, compound 20 mM, 3rd and 7th days, FIG. 7
T7 construct: beta-amyloids 40 and 42 consisting of 40 and 42 amino acids
T7 sequence (P05067 672-713 limits assumed): as the sequence (P05067 672-713 limits assumed) above
Procedure: as §4, §5

[4] = tested on: HT-22 cells treated with Aβ40; test: Cell viability (MTT) on beta-amyloid toxicity, Aβ40; assay type: cell-based, rat; conditions: HT-22, Aβ40 2 μM pre-treated with compound, 24 hours, untreated cells = 100%, FIG. 8 (a)
Procedure: as §6, §7, §8

## O=S(=O)(O)CC(O)CN1CCN(CCO)CC1 (centres unmarked) [chemical formula 2, HEPPSO]
Aβ40 fibril
  disaggregation activity to the beta-amyloid aggregate (ThT): does not exhibit any disaggregation activity
Aβ40 fibril; 37° C., up to 7 days
  ThT fluorescence intensity compared to initially prepared aggregates (prefibrils): increased
Aβ42 fibril
  disaggregation activity to the beta-amyloid aggregate (ThT): does not exhibit any disaggregation activity
Aβ42 fibril; 37° C., up to 7 days
  ThT fluorescence intensity compared to initially prepared aggregates (prefibrils): increased

## NCCCS(=O)(=O)O [tramiprosate, Tramiprosate]
Aβ40
  increase of ThT fluorescence intensity: about 3.5 times

## O=S(=O)(O)CCCN1CCN(CCO)CC1 [chemical formula 1a]
[1]
  beta-amyloid fibrils in transmission electron microscope images: no beta-amyloid fibrils appeared on 3rd and 7th days
[2]
  cell viability: ≥ 95%
Aβ40 fibril; 0th, 3rd, 7th day, FIG. 2 (a)
  course of ThT fluorescence intensity over time: increased over time
HT-22 cells
  cell viability, compound only: ≥ 95%
Accumulated Aβ42
  disaggregation of accumulated beta-amyloid into monomers (SDS-PAGE band near 3.5 kD): disaggregated into monomers
Accumulated Aβ40
  disaggregation of accumulated beta-amyloid into monomers (SDS-PAGE band near 3.5 kD): disaggregated into monomers
[3]
  beta-amyloid fibrils in transmission electron microscope images: no beta-amyloid fibrils appeared on 3rd and 7th days
[4]
  cell viability: ≥ 95%
Aβ42 fibril; 0th, 3rd, 7th day, FIG. 2 (b)
  course of ThT fluorescence intensity over time: increased over time
